From patent US20150094294A1, “COMPOUNDS AND METHODS FOR TREATING MALARIA” (Cellceutix Corporation, priority 2012, published 2015)
Converted amounts (≈) assume the structure as drawn.

Key:
Type in all cases: cell-based
[1] = system: P. falciparum 3D7 (chloroquine-sensitive); assay: Anti-malarial activity, P. falciparum 3D7 culture, 72 hour, DNA content by flow cytometry; details: synchronized ring-stage parasites
How it was run: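 Magnet-synchronized ring-stage parasites in RPMI 1640/Albumax II were plated at 0.5% parasitemia, 4% final hematocrit, with compound added as 2× dilutions (2.5 μM to 20 nM) for 72 h. Fixed, Triton-permeabilized cells were stained with SYTOX Green (5 μM final), and DNA content was measured by flow cytometry to derive IC50.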

[2] = Cytotoxicity against HepG2 cells; details: human, HepG2 cells; read-out: Cytotoxicity HepG2 EC50
[3] = Cytotoxicity against 3T3 cells; details: mouse, 3T3 cells; read-out: Cytotoxicity 3T3 EC50
in vitro = assay: in vitro
[4] = system: P. falciparum DD2 (chloroquine-resistant); assay: Anti-malarial activity, P. falciparum DD2 culture, 72 hour, DNA content by flow cytometry; details: synchronized ring-stage parasites
Experimental: Numerous compounds were screened in cultures of the malaria parasite P. falciparum 3D7 (chloroquine-sensitive) and DD2 (chloroquine-resistant). The compounds were also screened for toxixcity against 3T3 cells, HepG2 cells, and in a hemolysis assay. In brief, P. falciparum parasites were cultured in RPMI 1640 (Invitrogen) supplemented with Albumax II (Invitrogen). For synchronization, schizont stage parasites were magnet purified using a SuperMACS™ II Cell Separation Unit (Miltenyi Biotech). For IC50 determinations, synchronized ring-stage parasites were plated at 0.5% parasitemia and 8% hematocrit in 96-well plates at a total volume of 50 μL. Serial dilutions of 2× concentration of the respective compound, ranging from 2.5 μM to 20 nM, were added to the wells to bring the total volume up to 100 μL and 4% hematocrit. Compounds were assayed for a 72 hour period, after which the cultures were fixed with a solution of 4% paraformaldehyde and 0.08% glutaraldhyde in PBS. The cells were then permeabilized with 0.25% Triton X-100, and SYTOX Green Nucleic Acid Stain (Invitrogen) in PBS was added to a final concentration of 5 μM. DNA content, as an indicator of parasitemia, was analyzed on an Accuri C6 Flow Cytometer with C-Sampler. IC50 curves were generated using GraphPad Prism (GraphPad Software).

[5] = Plasmodium falciparum, 3D7, 72 h

SMILES | IC50 [1, 5] | EC50 [2] | EC50 [3] | EC50 (in vitro) | IC50 ([4]; Plasmodium falciparum) | IC50 [1] | IC50 [4]
N=C(N)NCCCCC(=O)Nc1cc(Br)cc(NC(=O)c2cc(C(=O)Nc3cc(Br)cc(NC(=O)CCCCNC(=N)N)c3SCCO)ncn2)c1SCCO [Compound 170] | 0.569 µM | 165 µM | 110 µM | 59 µg/mL (≈ 62.7 µM) | 0.591 µM |  | 
NCc1cc(C(F)(F)F)ccc1Oc1ccc(Oc2ccc(C(F)(F)F)cc2CN)cc1 [Compound 166] | 0.991 µM | 71 µM | 17 µM | 364 µg/mL (≈ 798 µM) | 1.23 µM |  | 
NCCN1CCc2ccc(NC(=O)c3cc(C(=O)Nc4ccc5c(c4)CCN(CCN)CC5)ncn3)cc2CC1 [Compound 146] | 0.308 µM | 373 µM | 373 µM | 123 µg/mL (≈ 227 µM) | 0.331 µM |  | 
COC(=O)CCSc1c(NC(=O)CCCCNC(=N)N)cc(C(F)(F)F)cc1NC(=O)c1cc(C(=O)Nc2cc(C(F)(F)F)cc(NC(=O)CCCCNC(=N)N)c2SCCC(=O)OC)ncn1 [Compound 171] | 0.893 µM |  |  |  | 0.524 µM |  | 
N=C(N)NCCSc1cc(SCCNC(=N)N)c(C(F)(F)F)cc1NC(=O)c1cc(C(=O)Nc2cc(C(F)(F)F)c(SCCNC(=N)N)cc2SCCNC(=N)N)ncn1 [Compound 114] | 0.672 µM | 57 µM | 31 µM | 61 µg/mL (≈ 66.1 µM) | 0.656 µM |  | 
N=C(N)NCCCCN1CCc2ccc(NC(=O)c3cc(C(=O)Nc4ccc5c(c4)CCN(CCCCNC(=N)N)CC5)ncn3)cc2CC1 [Compound 151] |  | 408 µM | 469 µM | > 1000 µg/mL | 0.563 µM |  | 
CC(C)(C)c1cc(N)c(SCCN)c(NC(=O)c2cccc(C(=O)Nc3cc(C(C)(C)C)cc(N)c3SCCN)c2)c1 [Compound 110] |  |  |  |  |  | 0.563 µM | 0.74 µM
N=C(N)NCCCCC(=O)Nc1cc(C(F)(F)F)cc(NC(=O)c2cc(C(=O)Nc3cc(C(F)(F)F)cc(NC(=O)CCCCNC(=N)N)c3SCCN)[nH]n2)c1SCCN [Compound 119] |  |  |  |  |  | 0.87 µM | 0.688 µM
N=C(N)NCCSc1cc(SCCN)c(NC(=O)c2cc(C(=O)Nc3cc(C(F)(F)F)c(SCCNC(=N)N)cc3SCCN)ncn2)cc1C(F)(F)F [Compound 115] | 0.68 µM | 47 µM | 26 µM | 35 µg/mL (≈ 41.7 µM) | 0.664 µM |  | 
NCCCOc1c(-c2cccc(C(F)(F)F)c2)cc(-c2cccc(C(F)(F)F)c2)c(OCCCN)c1-c1cccc(C(F)(F)F)c1 [Compound 145] |  | 28 µM | 14 µM | 6 µg/mL (≈ 9.14 µM) | 0.658 µM |  | 
NCCSc1c(N)cc(C(F)(F)F)cc1NC(=O)c1cn(C2CC2)c2cc(N3CCNCC3)c(F)cc2c1=O [Compound 181] | 0.688 µM | 154 µM | 81 µM | > 1000 µg/mL | 0.74 µM |  | 
N=C(N)NCCc1cccc(NC(=O)c2cc(C(=O)Nc3cccc(CCNC(=N)N)c3)ncn2)c1 [Compound 100] | 0.035 µM | 830 µM | 769 µM | > 1000 µg/mL | 0.135 µM |  | 
CC(=O)Nc1cc(C(C)(C)C)cc(NC(=O)c2cccc(C(=O)Nc3cc(C(C)(C)C)cc(NC(C)=O)c3SCCN)c2)c1SCCN [Compound 108] |  |  |  |  |  | 0.306 µM | 0.419 µM
FC(F)(F)c1ccc(CN2CCNCC2)cc1Oc1ccc(Oc2cc(CN3CCNCC3)ccc2C(F)(F)F)cc1 [Compound 158] | 0.655 µM | 29 µM | 14 µM | 17 µg/mL (≈ 28.6 µM) | 1.09 µM |  | 
CN(CCCCC(=O)Nc1cc(C(C)(C)C)cc(NC(=O)c2cccc(C(=O)Nc3cc(C(C)(C)C)cc(NC(=O)CCCCN(C)c4ccccn4)c3SCCN)c2)c1SCCN)c1ccccn1 [Compound 118] |  |  |  |  |  | 0.74 µM | 1.15 µM
N=C(N)NCCCCC(=O)Nc1ccc(-c2ccc(NC(=O)CCCCNC(=N)N)c(C(F)(F)F)c2)cc1C(F)(F)F [Compound 173] | 0.204 µM | > 2000 µM | > 2000 µM | > 1000 µg/mL | 0.274 µM |  | 
N=C(N)NCCCc1cc(SCCN)c(NC(=O)c2cc(C(=O)Nc3cc(C(F)(F)F)c(CCCNC(=N)N)cc3SCCN)ncn2)cc1C(F)(F)F [Compound 116] | 0.706 µM | 95 µM | 76 µM | 39 µg/mL (≈ 48.6 µM) | 0.398 µM |  | 
